The results in this text go back to patent US11370771B2, “Inhibitors of TRPC6” (Boehringer Ingelheim International GmbH, priority 2018, dated 2022).

As a reminder, the IC50 is the concentration that inhibits the measured activity by half.

This assay addresses T1, human TRPC6 (Homo sapiens, UniProt Q9Y210).
T1 construct: expressed in transfected cells
T1 sequence (Q9Y210 1-931): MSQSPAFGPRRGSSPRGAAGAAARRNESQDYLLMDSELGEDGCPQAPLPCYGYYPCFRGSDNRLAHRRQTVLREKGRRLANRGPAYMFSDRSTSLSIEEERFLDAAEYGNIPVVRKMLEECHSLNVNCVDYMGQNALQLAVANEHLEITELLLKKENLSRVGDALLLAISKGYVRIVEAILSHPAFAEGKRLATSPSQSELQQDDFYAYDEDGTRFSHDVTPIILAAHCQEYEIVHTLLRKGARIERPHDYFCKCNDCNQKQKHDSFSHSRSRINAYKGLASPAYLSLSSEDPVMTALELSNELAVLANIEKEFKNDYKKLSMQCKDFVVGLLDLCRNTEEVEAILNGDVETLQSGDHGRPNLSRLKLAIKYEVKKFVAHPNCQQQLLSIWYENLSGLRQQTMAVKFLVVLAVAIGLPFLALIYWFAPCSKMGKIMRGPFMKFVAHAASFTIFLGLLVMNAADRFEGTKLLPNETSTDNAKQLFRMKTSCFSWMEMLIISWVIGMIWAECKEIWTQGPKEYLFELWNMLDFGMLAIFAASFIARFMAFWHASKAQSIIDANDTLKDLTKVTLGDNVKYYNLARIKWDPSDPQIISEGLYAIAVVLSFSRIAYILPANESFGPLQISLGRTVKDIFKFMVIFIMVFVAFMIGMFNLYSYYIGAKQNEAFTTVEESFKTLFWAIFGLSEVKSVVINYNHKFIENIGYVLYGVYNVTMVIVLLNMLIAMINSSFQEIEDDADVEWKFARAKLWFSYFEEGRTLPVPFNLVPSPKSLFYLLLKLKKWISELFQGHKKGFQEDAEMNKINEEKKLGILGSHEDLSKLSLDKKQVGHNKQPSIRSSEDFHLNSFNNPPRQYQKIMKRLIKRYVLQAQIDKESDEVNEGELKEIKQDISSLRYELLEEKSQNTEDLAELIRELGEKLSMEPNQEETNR
The experiment in a line: High Throughput Screening Assay Method 2 (membrane potential dye, GSK1702934A agonist, HEK293 stably transfected with human TRPC6). The format is cell-based. As to conditions: antagonist effect against human TRPC6, 3 μM GSK1702934A agonist, HEK293 TRPC6 cells, read-out: Fluorescence TRPC6 IC50. The text has this: This screening assay measures TRPC6 (transient receptor potential cation channel, subfamily C, member 6) ion channel activation via addition either of the commercially available DAG ligand analogue OAG (1-oleoyl-2-acetyl-sn-glycerol) or of the TRPC6 agonist 1-[1-(4,5,6,7,8-pentahydrocyclohepta[2,1-d]thiophen-2-ylcarbonyl)-4-piperidyl]-3-hydrobenzimidazol-2-one (GSK1702934A). The assay utilizes a FLIPR membrane potential (FMP) dye from Molecular Devices, which is a voltage sensitive indicator with a fluorescent quencher. Changes in membrane potential as measured by the fluorescent signal increase during membrane depolarization provide a measurement of channel activity.
The commercially available HEK293 cell line (ATCC) was stably transfected with an human TRPC6 gene construct in pcDNA3.1(+) (Thermo Fisher) and screened to find a clone with TRPC6 expression. These cells were maintained in growth medium recommended by the manufacturer supplemented with 400 μg/ml G418 to promote retention of the TRPC6 construct. After growing to near confluency, cells were plated at a density of 15,000 cells/well in clear bottom black walled poly-D-Lys coated 384-well tissue culture treated plates (TwinHelix, cat. #GR 4332 CPL) in growth medium lacking G418, and allowed to grow for 24 hrs. Growth media was removed from the wells and cells were then loaded with 20 μL of 0.5× Membrane Potential sensitive dye (Molecular Devices) in the presence of 30 μM BAPTA-AM (Invitrogen) in Tyrode's assay buffer (130 mM NaCl, 5 mM KCl, 0.15 mM CaCl2), 1 mM MgCl2, 5 mM NaHCO3, 20 mM HEPES, pH 7.4) and incubated for 60 min at room temperature in the dark. Ten μL/well of test compound or controls was added to the wells with the FLIPR^TETRA (Molecular Devices) and incubated for 5 minutes. Compounds were tested at eight concentrations (10, 3.16, 1, 0.316, 0.1, 0.0316, 0.01 and 0.00316 μM diluted in Tyrode's assay buffer and 0.5% DMSO, final concentration) with inter-plate duplicate data points. Subsequently, 15 μL/well of GSK1702934A agonist in Tyrode's assay buffer was added to a final concentration of 3 μM by the FLIPR^TETRA and the signal of the emitted fluorescence (Excitation: 510-545 nm, Emission: 565-625 nm) was recorded for 3 minutes. Negative and positive controls were included on each plate. Negative controls wells consisted of cells exposed to Tyrode's assay buffer and agonist solution, but no test compound. Positive control consisted of cells exposed to […] Verapamil hydrochloride (Tocris, cat. #0654) diluted in Tyrode's assay buffer and 0.5% DMSO final concentration and agonist solution. Inhibition was expressed as a percentage of control, with 0% activity being a result in which the response value of the test wells reached a level identical to the wells containing Verapamil plus GSK1702934A and 100% activity being a result in which the response value of the test wells reached a level identical to the wells containing GSK1702934A alone. Genedata Screener® 14.0.6 was used for data analysis to fit IC50 curves.
For `COc1cc(N)ncc1C1CCN(C(=O)c2ccc(OCc3csnn3)cc2F)CC1` [Compound 40, 5-(1-{2-Fluoro-4-[(1,2,3-thiadiazol-4-yl)methoxy]benzoyl}piperidin-4-yl)-4-methoxypyridin-2-amine], the concentration for half-maximal inhibition (IC50) is 482 nM.
The value for `COc1cc(C(=O)N2CCC(c3cnc(N)cc3OC)CC2)c(F)cc1OCC(C)C` [Compound 33, 5-{1-[2-Fluoro-5-methoxy-4-(2-methylpropoxy)benzoyl]piperidin-4-yl}-4-methoxypyridin-2-amine] was 250 nM; that for `COc1cc(C(=O)N2CCC(c3cnc(N)cc3OC)CC2)c(F)cc1OCC1CCC1` [Compound 36, 5-{1-[4-(Cyclobutylmethoxy)-2-fluoro-5-methoxybenzoyl]piperidin-4-yl}-4-methoxypyridin-2-amine] was 135 nM.
The value for `COc1cc(N)ncc1C1CCN(C(=O)c2ccc(OCc3ccccc3)cc2F)CC1` [Compound 43, 5-{1-[4-(Benzyloxy)-2-fluorobenzoyl]piperidin-4-yl}-4-methoxypyridin-2-amine] was 1810 nM.
In the case of `COc1cc(N)ncc1N1CCN(C(=O)c2ccc(Oc3ccc(F)cc3)cc2F)C2(CC2)C1` [Compound 27, 5-{4-[2-Fluoro-4-(4-fluorophenoxy)benzoyl]-4,7-diazaspiro[2.5]octan-7-yl}-4-methoxypyridin-2-amine], the IC50 was determined as 97 nM.
For `COc1cc(C(=O)N2CCC(c3cnc(N)cc3OC)CC2)c(F)cc1OCC1CC(C)C1` (stereo not drawn) [Compound 34, 5-(1-{2-Fluoro-5-methoxy-4-[(3-methylcyclobutyl)methoxy]benzoyl}piperidin-4-yl)-4-methoxypyridin-2-amine], the IC50 was found to be 428 nM.
As to `CCCOc1ccc(C(=O)N2CCC(c3cnc(N)cc3OC)CC2)c(F)c1` [Compound 39, 5-[1-(2-Fluoro-4-propoxybenzoyl)piperidin-4-yl]-4-methoxypyridin-2-amine], the IC50 amounted to 662 nM.
With `COc1cc(C(=O)N2CCC(c3nnc(N)cc3C)CC2)c(F)cc1Oc1ccc(F)cc1` [Compound 51, 6-{1-[2-Fluoro-4-(4-fluorophenoxy)-5-methoxybenzoyl]piperidin-4-yl}-5-methylpyridazin-3-amine] the figure was 182 nM.
For the compound `COc1cc(C(=O)N2CCC(c3cnc(N)cc3OC)CC2)c(F)cc1OCC1CC1` [Compound 35, 5-{1-[4-(Cyclopropylmethoxy)-2-fluoro-5-methoxybenzoyl]piperidin-4-yl}-4-methoxypyridin-2-amine], the IC50 worked out at 154 nM.
The value for `Cc1cc(C2CCN(C(=O)c3ccc(Oc4ccc(F)cc4)cc3)CC2)nnc1N` [Compound 50, 6-{1-[4-(4-Fluorophenoxy)benzoyl]piperidin-4-yl}-4-methylpyridazin-3-amine] was 288 nM; that for `Nc1ccc(C2CCN(C(=O)c3ccc(Oc4ccc(F)cc4)c(F)c3)CC2)nn1` [Compound 48, 6-{1-[3-Fluoro-4-(4-fluorophenoxy)benzoyl]piperidin-4-yl}pyridazin-3-amine] was 141 nM; that for `COc1cc(N)ncc1C1CCN(C(=O)c2cc(F)c(Oc3ccc(F)cc3)cc2F)CC1` [Compound 30, 5-{1-[2,5-Difluoro-4-(4-fluorophenoxy)benzoyl]piperidin-4-yl}-4-methoxypyridin-2-amine] was 166 nM.
With `COc1cc(C(=O)N2CCC(c3ccc(N)nn3)CC2)c(F)cc1Oc1ccc(F)cc1` [Compound 47, 6-{1-[2-Fluoro-4-(4-fluorophenoxy)-5-methoxybenzoyl]piperidin-4-yl}pyridazin-3-amine], the IC50 stood at 34 nM.
As to `COc1cc(N)ncc1C1CCN(C(=O)c2ccc(OC[C@@H]3C[C@H]3C)cc2F)CC1` (relative stereo) [Compound 38, 5-[1-(2-Fluoro-4-{[trans-2-methylcyclopropyl]methoxy}benzoyl)piperidin-4-yl]-4-methoxypyridin-2-amine], the IC50 came out at 791 nM.
`Nc1ccc(C2CCN(C(=O)c3ccc(Oc4ccc(F)cc4)cc3F)CC2)nn1` [Compound 46, 6-{1-[2-Fluoro-4-(4-fluorophenoxy)benzoyl]piperidin-4-yl}pyridazin-3-amine]: the half-maximal inhibitory concentration (IC50) is 57 nM.
